As a reminder, the IC50 is the concentration at which inhibition is half-maximal. A high value points to a need for much substance.

This assay concerns the target T1, human KSP motor domain (KSP(367H)) (Homo sapiens, UniProt P52732).
T1 construct: were used to amplify the motor domain and the neck linker region; made in house; host or cells: E. coli BL21 (DE3), vector pRSETa
T1 sequence (P52732 18-359 limits assumed): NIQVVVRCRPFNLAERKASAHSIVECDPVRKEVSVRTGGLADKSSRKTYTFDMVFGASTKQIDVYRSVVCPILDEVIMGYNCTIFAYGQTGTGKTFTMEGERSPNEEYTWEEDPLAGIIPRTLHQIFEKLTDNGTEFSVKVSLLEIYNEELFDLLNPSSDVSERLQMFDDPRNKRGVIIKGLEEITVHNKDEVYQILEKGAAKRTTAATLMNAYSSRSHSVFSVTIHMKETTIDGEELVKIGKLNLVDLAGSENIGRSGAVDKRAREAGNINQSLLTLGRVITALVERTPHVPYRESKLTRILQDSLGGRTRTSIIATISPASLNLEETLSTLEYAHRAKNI
In words: Kinesin ATPase in vitro assay. The note with it: KSP motor domain with microtubules, 1 mM ATP, 23° C.; free phosphate by quinaldine red/ammonium molybdate. The assay is classed as biochemical. The text has this: I. Kinesin ATPase In Vitro Assay
Cloning and Expression of Human Poly-Histidine Tagged KSP Motor Domain (KSP(367H))
Plasmids for the expression of the human KSP motor domain construct were cloned by PCR using a pBluescript full length human KSP construct (Blangy et al., Cell, vol. 83, pp 1159-1169, 1995) as a template. The N-terminal primer 5′-[…] (SEQ. ID. NO.: 1) and the C-terminal primer 5′-[…] […] (SEQ. ID. NO.: 2) were used to amplify the motor domain and the neck linker region. The PCR products were digested with AseI and XhoI, ligated into the NdeI/XhoI digestion product of pRSETa (Invitrogen) and transformed into E. coli BL21 (DE3).
Cells were grown at 37° C. to an OD600 of 0.5. […]
The kinesin motor domain is incubated with microtubules, 1 mM ATP (1:1 MgCl2: Na-ATP), and compound at 23° C. in buffer containing 80 mM K-HEPES (pH 7.0), 1 mM EGTA, 1 mM DTT, 1 mM MgCl2, and 50 mM KCl. […] Free phosphate from the ATP hydrolysis reaction is measured via a quinaldine red/ammonium molybdate assay by adding 150 μl of quench C buffer containing a 2:1 ratio of quench A:quench B. Quench A contains 0.1 mg/ml quinaldine red and 0.14% polyvinyl alcohol; quench B contains 12.3 mM ammonium molybdate tetrahydrate in 1.15 M sulfuric acid. The reaction is incubated for 10 minutes at 23° C., and the absorbance of the phospho-molybdate complex is measured at […].

As for `CN(C(=O)N1CC(c2cc(F)ccc2F)=C[C@@]1(CO)c1ccccc1)[C@H]1CCN(CCC[Si](C)(C)C)C[C@H]1F` [Compound 11-1, (2S)-4-(2,5-difluorophenyl)-N-{(3R,4S)-3-fluoro-1-[3-(trimethylsilyl)propyl]piperidin-4-yl}-2-(hydroxymethyl)-N-methyl-2-phenyl-2,5-dihydro-1H-pyrrole-1-carboxamide], the IC50 was ≤ 50 µM.
